# In patent US20170349546A1, “Light-Activated Two-Component Protein Binding Matrix” (National University of Singapore, priority 2014, published 2017):
# Where no end group is shown, it is not given here. The star is where a group is joined. Biotin = O=C1N[C@H]2[C@H](CS[C@H]2CCCCC(=O)*)N1
# Assay: Spiropyran modified beads pull-down of biotinylated peptide, residual HRP-streptavidin measured in solution
# Type: binding
# Conditions: beads incubated with 10 μM peptide, washed twice with PBS, 1 μM HRP-conjugated streptavidin; exposed to light at time=60 minutes
# Description: FIG. 3 is a line graph representing binding of peptides to beads selectively modified with a spiropyran molecule. The selectively modified beads were incubated with 10 μM of peptide B7, LAGPQMHGK (SEQ ID NO: 62), for the indicate length of time, and then washed twice with phosphate buffered saline (PBS). The beads were when incubated with 1 μM horseradish (HRP)-conjugated streptavidin, and the residual HRP-streptavidin was measured in solution. FIG. 3 illustrates the % absorbance of the beads after the indicated period of time. The higher the absorbance, the higher the concentration of streptavidin in the bulk solution. […]
# Wash 1 mL agarose beads with 2 column volumes DMSO (take from bottle in anhydrous fashion). In different container, mix 2.5 mg spiropyran and 80 mg EDC and 100 mg of NHS. Dissolve these compounds in DMSO; wait for 10 minutes at room temp. Add beads (which are now in DMSO) to this mixture. Make sure good mixing/suspension, i.e. enough DMSO to fully suspend the entire matrix. Agitate for 12 hours. Wash modified matrix with DMSO×20 c.v. to wash out free compounds. Remove DMSO with water was ×20 column volumes. Then store in water or 20% ethanol. See FIG. 7 for examples of bead conjugation techniques.
sequence,measurement,value
"LAGPQMHGK (LAGPQMHGK(Biotin)) [peptide B7, biotinylated peptide aptamer, biotin covalently linked via the amine on the C-terminal lysine residue]",residual HRP-streptavidin in bulk solution (% absorbance) after exposure to light,released back into the bulk solution
